In ChEMBL document CHEMBL3301361, “Experimental in vitro DMPK and physicochemical data on a set of publicly disclosed compounds”:
In brackets after ≈: the same amount, converted by molar mass. Several values for one entry are separate records, joined by “and”; a condition that tells them apart may be missing. Identical values can stand only once.

Key:
[1] = in vitro; details: human, plasma
[2] = physchem; details: pH 7.4 buffer
[3] = physchem
[4] = physchem; remark: listed apart in the source
[5] = in vitro; details: human, liver microsomes
[6] = physchem; remark: listed apart in the source
[7] = physchem; remark: listed apart in the source
[8] = in vitro; details: human, hepatocytes
[9] = buffer, pH 7.4
[10] = physchem; details: octan-1-ol/water
[11] = in vitro; details: SD, HW or BN, rat, plasma
[12] = in vitro; details: Beagle, dog, plasma
[13] = in vitro; details: Dunkin Hartley, guinea pig, plasma
[14] = in vitro; details: hepatocytes
[15] = in vitro; details: mouse, plasma

COc1ccc(CCN2CCC(Nc3nc4ccccc4n3Cc3ccc(F)cc3)CC2)cc1 [ASTEMIZOLE]
fraction unbound at 5 h ([1]; PPB): 0.0262 | solubility thermodynamic [2]: 5.6 µM (≈ 2.57 µg/mL) | pKa [3]: 9.62 | pKa [4]: 6.33 | microsomal CLint [5]: 66 µL/min/mg

O=C(O)CCCCCCCC(=O)O [AZELAIC ACID]
pKa [6]: 3.49 | pKa [7]: 5.87

O=C1CC2(CCCC2)CC(=O)N1CCCCN1CCN(c2ncccn2)CC1 [BUSPIRONE]
hepatocyte CLint [8]: 38.9 µL/min/1e6 cells | solubility thermodynamic [2]: 1450 µM (≈ 557 µg/mL) | pKa [3]: 7.61 | pKa [4]: 5.48 | microsomal CLint [5]: 116 µL/min/mg

CO[C@@]1(NC(=O)CSCC#N)C(=O)N2C(C(=O)O)=C(CSc3nnnn3C)CS[C@@H]21 [CEFMETAZOLE]
fraction unbound at 5 h ([1]; PPB): 0.194 | pKa [6]: 3.37 | pKa [7]: 10.2

CN(C)CCn1nnnc1SCC1=C(C(=O)O)N2C(=O)[C@@H](NC(=O)Cc3csc(N)n3)[C@H]2SC1 [CEFOTIAM]
pKa [3]: 8.18 | pKa [6]: 2.41 | pKa [4]: 4.61

COc1cc(N)c(Cl)cc1C(=O)NC1CCN(CCCOc2ccc(F)cc2)CC1OC (stereo unspecified) [CISAPRIDE]
LogD7.4 [9]: 3.56

CN1CCC[C@@H]1CCO[C@](C)(c1ccccc1)c1ccc(Cl)cc1 [CLEMASTINE]
LogD7.4 [9]: 3.48 | logD ([10]; pH 7.4, LogD7.4): 3.04

CC(C)/N=c1\cc2n(-c3ccc(Cl)cc3)c3ccccc3nc-2cc1Nc1ccc(Cl)cc1 [CLOFAZIMINE]
LogD7.4 [9]: 3.17 | solubility thermodynamic [2]: 0.7 µM (≈ 0.331 µg/mL) | pKa [3]: 8.8 | fraction unbound at 5 h [11]: 0.0037

CN1CCN(C2=Nc3cc(Cl)ccc3Nc3ccccc32)CC1 [CLOZAPINE]
fraction unbound at 5 h [1]: 0.0521 | logD ([10]; pH 7.4): 3.08 | fraction unbound at 5 h [12]: 0.0736 | pKa [4]: 3.99 | fraction unbound at 5 h [11]: 0.0647 | fraction unbound at 5 h [13]: 0.0872

O=C(O)c1cc(=O)c2c(OCC(O)COc3cccc4oc(C(=O)O)cc(=O)c34)cccc2o1 [CROMOLYN]
pKa [6]: < 2 | pKa [7]: < 2

COc1cc2ncnc(Nc3ccc(F)c(Cl)c3)c2cc1NC(=O)/C=C/CN1CCCCC1 [DACOMITINIB ANHYDROUS]
hepatocyte CLint [8]: < 3 µL/min/1e6 cells | fraction unbound at 5 h ([1]; PPB): 0.0179 | logD ([10]; pH 7.4, LogD7.4): 4.1 | solubility thermodynamic [2]: 6.8 µM (≈ 3.2 µg/mL) | pKa [3]: 9.36 | hepatocyte CLint [14]: 9.77 µL/min/1e6 cells | pKa [4]: 5.2

Clc1ccc2c(c1)CCc1cccnc1C2=C1CCNCC1 [DESLORATADINE]
logD ([10]; pH 7.4): 1.48 | pKa [3]: 10 | hepatocyte CLint [14]: 26.9 µL/min/1e6 cells | pKa [4]: 4.57 | fraction unbound at 5 h [15]: 0.183 | fraction unbound at 5 h [11]: 0.145

O=c1c2ccccc2[se]n1-c1ccccc1 [EBSELEN]
LogD7.4 [9]: 3.31

Clc1ccc(COC(Cn2ccnc2)c2ccc(Cl)cc2Cl)cc1 (stereo unspecified) [ECONAZOLE]
LogD7.4 [9]: 2.54

OC(Cn1cncn1)(Cn1cncn1)c1ccc(F)cc1F [FLUCONAZOLE]
fraction unbound at 5 h [1]: 0.858 | pKa [3]: 2.72 | pKa [4]: 2.18

CC(CCc1ccccc1)NCC(O)c1ccc(O)c(C(N)=O)c1 (stereo unspecified) [LABETALOL]
LogD7.4 [9]: 1.06 | fraction unbound at 5 h ([1]; PPB): 0.376

Cc1nnc(C(C)C)n1[C@H]1C[C@H]2CC[C@@H](C1)N2CC[C@H](NC(=O)C1CCC(F)(F)CC1)c1ccccc1 [MARAVIROC]
pKa [3]: 9.66 | pKa [4]: 2.4

CCOC(=O)C1(c2ccccc2)CCN(C)CC1 [MEPERIDINE]
LogD7.4 [9]: 1.4

CCCc1c2oc(C(=O)O)cc(=O)c2cc2c(=O)cc(C(=O)O)n(CC)c12 [NEDOCROMIL]
pKa [6]: < 2 | pKa [7]: < 2

CC(C)N1CCN(Cc2cnc(-c3cc(-c4cccc5[nH]ccc45)cc4[nH]ncc34)o2)CC1 [NEMIRALISIB]
fraction unbound at 5 h ([1]; PPB): 0.03 | logD ([10]; pH 7.4, LogD7.4): 3.49 | pKa [3]: 8.26 | pKa [4]: 2.4 | fraction unbound at 5 h [11]: 0.0358

CC1(C)NC(=O)N(c2ccc([N+](=O)[O-])c(C(F)(F)F)c2)C1=O [NILUTAMIDE]
LogD7.4 [9]: 1.74 | solubility thermodynamic [2]: 234 µM (≈ 74.4 µg/mL)

CN1Cc2c(N)cccc2C(c2ccccc2)C1 (stereo unspecified) [NOMIFENSINE]
LogD7.4 [9]: 2.11 | logD ([10]; pH 7.4, LogD7.4): 2.08

NC(=O)N1c2ccccc2CC(=O)c2ccccc21 [OXCARBAZEPINE]
LogD7.4 [9]: 1.28

CN1CCN(CCCN2c3ccccc3Sc3ccc(Cl)cc32)CC1 [PROCHLORPERAZINE]
LogD7.4 [9]: 3.92

O=C(NO)c1ccccc1O [SALICYLHYDROXAMIC ACID]
pKa [6]: 7.5 | microsomal CLint [5]: < 3 µL/min/mg | pKa [7]: 9.9

CC(C)(C)NC[C@H](O)COc1nsnc1N1CCOCC1 [TIMOLOL]
LogD7.4 [9]: -0.35 and -0.22 | hepatocyte CLint [8]: 4.57 µL/min/1e6 cells | fraction unbound at 5 h ([1]; PPB): 0.597 | hepatocyte CLint [14]: > 150 µL/min/1e6 cells

CN1CCN(CCCN2c3ccccc3Sc3ccc(C(F)(F)F)cc32)CC1 [TRIFLUOPERAZINE]
LogD7.4 [9]: 4.31 | fraction unbound at 5 h ([1]; PPB): 0.0081 | fraction unbound at 5 h [11]: 0.007

CC(CN(C)C)CN1c2ccccc2CCc2ccccc21 (stereo unspecified) [TRIMIPRAMINE]
LogD7.4 [9]: 2.95 | fraction unbound at 5 h ([1]; PPB): 0.069
